# Assay results published in patent US11534457B2, “Use of dextran sulfate” (priority 2017, dated 2022).
# Test system: severe traumatic brain injury (sTBI)
# Assay: sTBI in rats, brain gene expression arrays and pathway analysis (Example 9)
# Assay type: in vivo, Male Wistar rats
# Settings: 2 days after TBI
# Protocol: The experimental protocol used in this study was approved by the Ethical Committee of the Catholic University of Rome, according to international standards and guidelines for animal care. Male Wistar rats of 300-350 g body weight were fed with standard laboratory diet and water ad libitum in a controlled environment. As the anesthetic mixture, the animals received 35 mg/kg b.w. ketamine and 0.25 mg/kg body weight midazolam by i.p. injection. Severe traumatic brain injury (sTBI) was induced by dropping a 450 g weight from 2 m height on to the rat head that had been protected by a metal disk previously fixed on the skull, according to the “weight drop” impact acceleration model (Marmarou et al., A new model of diffuse brain injury in rats. Part I: Pathophysiology and biomechanics. J Neurosurg. 1994; 80: 291-300). […] At the end of each period of treatment, rats were anesthetized again and then immediately sacrificed.
# LMW-DS (Tikomed AB) was provided at a stock concentration of 20 mg/ml and was kept in a temperature-monitored refrigerator at 4° C. LMW-DS aliquots were diluted to the appropriate dosing concentration in sterile saline prior to delivery of a single subcutaneous injection.
# Three doses of LMW-DS were administered subcutaneously 30 minutes post-TBI. The animals were sacrificed at 2 days post-TBI. The animals were divided into the following subgroups:
# Three doses of LMW-DS were administered subcutaneously 30 minutes post-TBI. The animals were sacrificed at 7 days post-TBI. The animals were divided into the following subgroups:
# An in vivo craniectomy was performed on all animals during anesthesia. After carefully removing the rat's skull, the brain was exposed and removed with a surgical spatula and quickly dropped in RNALater and preserved at 4° C. for further processing.
# RNA extraction and array processing was carried out by SourceBioscience. The arrays used were the Agilent Rat expression arrays.
# Statistical analysis was carried out using the Metaboanalyst software package. Gene expression changes of 10% with a p<0.05 were regarded as significant.
# Pathway analysis of the differentially regulated genes was carried out using the Ingenuity pathway analysis package. The analysis was performed with special reference to pathways and molecular processes and diseases associated with neurodegenerative disease, including dementia, Alzheimer's disease, ALS, TBI and stroke, and with scarring and fibrosis, including glaucoma and normal pressure hydrocephalus (NPH) after subarachnoid haemorrhage.
# [1] = TBI + 5 mg/kg LMW-DS, relative to control
substance,measurement,setting,value
low molecular weight dextran sulfate [LMW-DS],effect on canonical pathway Adrenomedullin Signaling pathway,TBI + 5 mg/kg LMW-DS,Inhibited
same,effect on canonical pathway NF-κ13 Signaling,TBI + 5 mg/kg LMW-DS,Inhibited
same,effect on canonical pathway Osteoarthritis Pathway,TBI + 5 mg/kg LMW-DS,Inhibited
same,effect on canonical pathway Role of NFAT in Cardiac Hypertrophy,TBI + 5 mg/kg LMW-DS,Inhibited
same,"z score, Abdominal cancer",TBI + 5 mg/kg LMW-DS,−2.553
same,"z score, Abdominal carcinoma",TBI + 5 mg/kg LMW-DS,−2.631
same,"z score, Abdominal neoplasm",TBI + 5 mg/kg LMW-DS,−0.927
same,"z score, Apoptosis",TBI + 5 mg/kg LMW-DS,0.601
same,"z score, Behavior",TBI + 5 mg/kg LMW-DS,−2.009
same,"z score, Carcinoma",TBI + 5 mg/kg LMW-DS,−2.071
same,"z score, Cell death",TBI + 5 mg/kg LMW-DS,0.051
same,"z score, Cell death of antigen presenting cells",TBI + 5 mg/kg LMW-DS,−0.62
same,"z score, Cell death of immune cells",TBI + 5 mg/kg LMW-DS,−1
same,"z score, Cell death of tumor cell lines",TBI + 5 mg/kg LMW-DS,−1.947
same,"z score, Cell movement",TBI + 5 mg/kg LMW-DS,−3.723
same,"z score, Cell movement of tumor cell lines",TBI + 5 mg/kg LMW-DS,−2.078
same,"z score, Cell proliferation of leukocyte cell lines",TBI + 5 mg/kg LMW-DS,−2.754
same,"z score, Cellular homeostasis",TBI + 5 mg/kg LMW-DS,−3.19
same,"z score, Chemotaxis",TBI + 5 mg/kg LMW-DS,−3.642
same,"z score, Development of vasculature",TBI + 5 mg/kg LMW-DS,−1.534
same,"z score, Digestive organ tumor",TBI + 5 mg/kg LMW-DS,−1.149
same,"z score, Digestive system cancer",TBI + 5 mg/kg LMW-DS,−2.221
same,"z score, Edema",TBI + 5 mg/kg LMW-DS,3.386
same,"z score, Epithelial neoplasm",TBI + 5 mg/kg LMW-DS,−1.393
same,"z score, Extracranial solid tumor",TBI + 5 mg/kg LMW-DS,−0.992
same,"z score, Feeding",TBI + 5 mg/kg LMW-DS,−0.895
same,"z score, Growth of tumor",TBI + 5 mg/kg LMW-DS,−1.233
same,"z score, Hematologic cancer",TBI + 5 mg/kg LMW-DS,−1.067
same,"z score, Incidence of tumor",TBI + 5 mg/kg LMW-DS,−0.731
same,"z score, Leukocyte migration",TBI + 5 mg/kg LMW-DS,−2.163
same,"z score, Leukopoiesis",TBI + 5 mg/kg LMW-DS,−3.549
same,"z score, Lymphocyte homeostasis",TBI + 5 mg/kg LMW-DS,−2.94
same,"z score, Lymphocytic cancer",TBI + 5 mg/kg LMW-DS,−0.48
same,"z score, Lymphocytic neoplasm",TBI + 5 mg/kg LMW-DS,−0.48
same,"z score, Lymphopoiesis",TBI + 5 mg/kg LMW-DS,−3.105
same,"z score, Lymphoproliferative disorder",TBI + 5 mg/kg LMW-DS,−0.48
same,"z score, Malignant solid tumor",TBI + 5 mg/kg LMW-DS,−1.492
same,"z score, Metabolism of hormone",TBI + 5 mg/kg LMW-DS,−1.632
same,"z score, Migration of cells",TBI + 5 mg/kg LMW-DS,−3.087
same,"z score, Necrosis",TBI + 5 mg/kg LMW-DS,−1.503
same,"z score, Neoplasia of leukocytes",TBI + 5 mg/kg LMW-DS,−0.48
same,"z score, Non-melanoma solid tumor",TBI + 5 mg/kg LMW-DS,−1.249
same,"z score, Proliferation of hematopoietic progenitor cells",TBI + 5 mg/kg LMW-DS,−2.951
same,"z score, Quantity of cells",TBI + 5 mg/kg LMW-DS,−3.092
same,"z score, Quantity of epithelial tissue",TBI + 5 mg/kg LMW-DS,−0.028
same,"z score, Quantity of neuroglia",TBI + 5 mg/kg LMW-DS,−1.446
same,"z score, Resorption of bone",TBI + 5 mg/kg LMW-DS,−0.478
same,"z score, Secretion of molecule",TBI + 5 mg/kg LMW-DS,1.634
same,"z score, Synthesis of hormone",TBI + 5 mg/kg LMW-DS,−1.632
same,"z score, Transport of molecule",TBI + 5 mg/kg LMW-DS,0.248
same,"z score, Vasculogenesis",TBI + 5 mg/kg LMW-DS,−2.274
same,"z score, canonical pathway Adrenomedullin Signaling pathway",[1],−2.236
same,"z score, canonical pathway NF-κb Signaling",[1],−2
same,"z score, canonical pathway Osteoarthritis Pathway",[1],−2.646
same,"z score, canonical pathway Role of NFAT in Cardiac Hypertrophy",[1],−1.63
same,"z score, Apoptosis",TBI + 15 mg/kg LMW-DS,−0.502
same,"z score, Apoptosis of tumor cell lines",TBI + 15 mg/kg LMW-DS,0.09
same,"z score, Behavior",TBI + 15 mg/kg LMW-DS,−0.139
same,"z score, Cell death",TBI + 15 mg/kg LMW-DS,−0.141
same,"z score, Necrosis",TBI + 15 mg/kg LMW-DS,−0.477
same,"z score, Quantity of blood cells",TBI + 15 mg/kg LMW-DS,−0.34
same,"z score, Quantity of cells",TBI + 15 mg/kg LMW-DS,−0.797
same,"z score, Quantity of lymphocytes",TBI + 15 mg/kg LMW-DS,−0.943
same,Diseases or functions annotation: Abdominal cancer,TBI + 1 mg/kg LMW-DS,Inhibited
same,Diseases or functions annotation: Abdominal carcinoma,TBI + 1 mg/kg LMW-DS,Inhibited
same,Diseases or functions annotation: Abdominal neoplasm,TBI + 1 mg/kg LMW-DS,Inhibited
same,Diseases or functions annotation: Activation of blood cells,TBI + 1 mg/kg LMW-DS,Activated
same,Diseases or functions annotation: Activation of cells,TBI + 1 mg/kg LMW-DS,Activated
same,Diseases or functions annotation: Activation of leukocytes,TBI + 1 mg/kg LMW-DS,Activated
same,Diseases or functions annotation: Activation of lymphocytes,TBI + 1 mg/kg LMW-DS,Inhibited
same,Diseases or functions annotation: Adhesion of tumor cell lines,TBI + 1 mg/kg LMW-DS,Activated
same,Diseases or functions annotation: Apoptosis,TBI + 1 mg/kg LMW-DS,Inhibited
same,Diseases or functions annotation: Apoptosis of muscle cells,TBI + 1 mg/kg LMW-DS,Activated
same,Diseases or functions annotation: Behavior,TBI + 1 mg/kg LMW-DS,Activated
same,Diseases or functions annotation: Binding of tumor cell lines,TBI + 1 mg/kg LMW-DS,Activated
same,Diseases or functions annotation: Carcinoma,TBI + 1 mg/kg LMW-DS,Inhibited
same,Diseases or functions annotation: Cell death,TBI + 1 mg/kg LMW-DS,Inhibited
same,Diseases or functions annotation: Cell death of blood cells,TBI + 1 mg/kg LMW-DS,Activated
same,Diseases or functions annotation: Cell death of immune cells,TBI + 1 mg/kg LMW-DS,Activated
same,Diseases or functions annotation: Cell movement,TBI + 1 mg/kg LMW-DS,Activated
same,Diseases or functions annotation: Cell movement of muscle cells,TBI + 1 mg/kg LMW-DS,Inhibited
same,Diseases or functions annotation: Cell movement of vascular smooth muscle cells,TBI + 1 mg/kg LMW-DS,Inhibited
same,Diseases or functions annotation: Cell proliferation of T lymphocytes,TBI + 1 mg/kg LMW-DS,Inhibited
same,Diseases or functions annotation: Cellular homeostasis,TBI + 1 mg/kg LMW-DS,Activated
same,Diseases or functions annotation: Development of connective tissue cells,TBI + 1 mg/kg LMW-DS,Inhibited
same,Diseases or functions annotation: Differentiation of bone cells,TBI + 1 mg/kg LMW-DS,Inhibited
same,Diseases or functions annotation: Differentiation of connective tissue cells,TBI + 1 mg/kg LMW-DS,Activated
same,Diseases or functions annotation: Differentiation of hematopoietic progenitor cells,TBI + 1 mg/kg LMW-DS,Activated
same,Diseases or functions annotation: Differentiation of osteoclasts,TBI + 1 mg/kg LMW-DS,Inhibited
same,Diseases or functions annotation: Digestive organ tumor,TBI + 1 mg/kg LMW-DS,Inhibited
same,Diseases or functions annotation: Experimentally-induced arthritis,TBI + 1 mg/kg LMW-DS,Inhibited
same,Diseases or functions annotation: Extracranial solid tumor,TBI + 1 mg/kg LMW-DS,Activated
same,Diseases or functions annotation: Genital tumor,TBI + 1 mg/kg LMW-DS,Activated
same,Diseases or functions annotation: Incidence of tumor,TBI + 1 mg/kg LMW-DS,Inhibited
same,Diseases or functions annotation: Inflammation of absolute anatomical region,TBI + 1 mg/kg LMW-DS,Inhibited
same,Diseases or functions annotation: Inflammation of body cavity,TBI + 1 mg/kg LMW-DS,Inhibited
same,Diseases or functions annotation: Inflammation of joint,TBI + 1 mg/kg LMW-DS,Inhibited
same,Diseases or functions annotation: Inflammation of organ,TBI + 1 mg/kg LMW-DS,Inhibited
same,Diseases or functions annotation: Inflammatory response,TBI + 1 mg/kg LMW-DS,Activated
same,Diseases or functions annotation: Interaction of mononuclear leukocytes,TBI + 1 mg/kg LMW-DS,Activated
same,Diseases or functions annotation: Leukocyte migration,TBI + 1 mg/kg LMW-DS,Activated
same,Diseases or functions annotation: Leukopoiesis,TBI + 1 mg/kg LMW-DS,Activated
same,Diseases or functions annotation: Lymphopoiesis,TBI + 1 mg/kg LMW-DS,Activated
same,Diseases or functions annotation: Malignant solid tumor,TBI + 1 mg/kg LMW-DS,Inhibited
